What is called mortality is the share of the test organisms that died.

The test system of assay [1] is Green Peach Aphid ("GPA") (Myzus Persicae) (MYZUPE). As to the kind of experiment: Bioassay on green peach aphid (GPA), foliar spray on infested cabbage seedlings. Format: in vivo. The note with it: 72 h, 200 ppm spray on cabbage leaves, live aphids counted after three days, Abbott's correction, read-out: MYZUPE rating (% Control of Mortality). From the text:
Bioassays on Green Peach Aphid (“GPA”) (Myzus Persicae) (MYZUPE.)
GPA is the most significant aphid pest of peach trees, causing decreased growth, shriveling of leaves, and the death of various tissues. It is also hazardous because it acts as a vector for the transport of plant viruses, such as potato virus Y and potato leafroll virus to members of the nightshade/potato family Solanaceae, and various mosaic viruses to many other food crops. GPA attacks such plants as broccoli, burdock, cabbage, carrot, cauliflower, daikon, eggplant, green beans, lettuce, macadamia, papaya, peppers, sweet potatoes, tomatoes, watercress and zucchini among other plants. GPA also attacks many ornamental crops such as carnations, chrysanthemum, flowering white cabbage, poinsettia and roses. GPA has developed resistance to many pesticides.
Several molecules disclosed herein were tested against GPA using procedures described below.
Cabbage seedling grown in 3-in pots, with 2-3 small (3-5 cm) true leaves, were used as test substrate. The seedlings were infested with […] (wingless adult and nymph stages) one day prior to chemical application. Four posts with individual seedlings were used for each treatment. Test compounds (2 mg) were dissolved in 2 mL of acetone/methanol (1:1) solvent, forming stock solutions of 1000 ppm test compound. The stock solutions were diluted 5× with 0.025% Tween 20 in water to obtain the solution at 200 ppm test compound. A hand-held aspirator-type sprayer was used for spraying a solution to both sides of the cabbage leaves until runoff. Reference plants (solvent check) were sprayed with the diluent only containing 20% by volume acetone/methanol (1:1) solvent. Treated plants were held in a holding room for three days at approximately 25° C. and ambient relative humidity (RH) prior to grading. Evaluation was conducted by counting the number of live aphids per plant under a microscope. Percent Control was measured by using Abbott's correction formula (W. S. Abbott, “A Method of Computing the Effectiveness of an Insecticide” J. Econ. Entomol 18 (1925), pp. 265-267) as follows.
Corrected % Control=100*(X−Y)/X • where • X=No. of live aphids on solvent check plants and • Y=No. of live aphids on treated plants
The results are indicated in the table entitled “Table 1: GPA (MYZUPE) and sweetpotato whitefly-crawler (BEMITA) Rating Table”.

Assay [2] concerns Sweetpotato Whitefly Crawler (Bemisia Tabaci) (BEMITA). The assay is described as follows: Bioassay on sweetpotato whitefly crawler, foliar spray on infested cotton plants. Particulars: 200 ppm spray on cotton leaves, live nymphs counted after 8-9 days, Abbott's correction, read-out: BEMITA rating (% Control of Mortality). Format: in vivo. The text has this: Bioassays on Sweetpotato Whitefly Crawler (Bemisia Tabaci) (BEMITA.)
The sweetpotato whitefly, Bemisia tabaci (Gennadius), has been recorded in the United States since the late 1800s. In 1986 in Florida, Bemisia tabaci became an extreme economic pest. Whiteflies usually feed on the lower surface of their host plant leaves. From the egg hatches a minute crawler stage that moves about the leaf until it inserts its microscopic, threadlike mouthparts to feed by sucking sap from the phloem. Adults and nymphs excrete honeydew (largely plant sugars from feeding on phloem), a sticky, viscous liquid in which dark sooty molds grow. Heavy infestations of adults and their progeny can cause seedling death, or reduction in vigor and yield of older plants, due simply to sap removal. The honeydew can stick cotton lint together, making it more difficult to gin and therefore reducing its value. Sooty mold grows on honeydew-covered substrates, obscuring the leaf and reducing photosynthesis, and reducing fruit quality grade. It transmitted plant-pathogenic viruses that had never affected cultivated crops and induced plant physiological disorders, such as tomato irregular ripening and squash silverleaf disorder. Whiteflies are resistant to many formerly effective insecticides.
Cotton plants grown in 3-inch pots, with 1 small (3-5 cm) true leaf, were used at test substrate. The plants were placed in a room with whitely adults. Adults were allowed to deposit eggs for 2-3 days. After a 2-3 day egg-laying period, plants were taken from the adult whitefly room. Adults were blown off leaves using a hand-held Devilbliss sprayer (23 psi). Plants with egg infestation (100-300 eggs per plant) were placed in a holding room for 5-6 days at 82° F. and 50% RH for egg hatch and crawler stage to develop. Four cotton plants were used for each treatment. Compounds (2 mg) were dissolved in 1 mL of acetone solvent, forming stock solutions of 2000 ppm. The stock solutions were diluted 10× with 0.025% Tween 20 in water to obtain a test solution at 200 ppm. A hand-held Devilbliss sprayer was used for spraying a solution to both sides of cotton leaf until runoff. Reference plants (solvent check) were sprayed with the diluent only. Treated plants were held in a holding room for 8-9 days at approximately 82° F. and 50% RH prior to grading. Evaluation was conducted by counting the number of live nymphs per plant under a microscope.

For the molecule `O=C(CCSCCC(F)(F)F)Nc1cn(-c2cccnc2)nc1Cl` [Compound 5.5, N-(3-Chloro-1-(pyridin-3-yl)-1H-pyrazol-4-yl)-3-((3,3,3-trifluoropropyl)thio)-propanamide], the mortality at 200 ppm in assay [1] is 80 to 100%; in assay [2], 0 to 80%.

`ClC1=NN(c2cccnc2)CC1` [Compound 5a, 3-(3-Chloro-4,5-dihydro-1H-pyrazol-1-yl)pyridine]: the mortality at 200 ppm in assay [1] and in assay [2] was 0 to 80% each time.

Turning to `O=C(CCCl)Nc1cn(-c2cccnc2)nc1Cl` [Compound 5e, 3-Chloro-N-(3-chloro-1-(pyridine-3-yl)-1H-pyrazol-4-yl)propanamide], the mortality at 200 ppm in assay [1] and in assay [2] was 80 to 100% each time.

As to `CCN(C(=O)CCSCCC(F)(F)F)c1cn(-c2cccnc2)nc1Cl` [Compound 8.5, N-(3-Chloro-1-(pyridin-3-yl)-1H-pyrazol-4-yl)-N-ethyl-3-((3,3,3-trifluropropyl)thio)propanamide], the mortality at 200 ppm in assay [1] and in assay [2] was 80 to 100% throughout.

For `CCN(C(=O)CC[S+]([O-])CCC(F)(F)F)c1cn(-c2cccnc2)nc1Cl` (stereo not shown) [Compound 9.5, N-(3-Chloro-1-(pyridin-3-yl)-1H-pyrazol-4-yl)-N-ethyl-3-((3,3,3-trifluropropyl)sulfoxo)propanamide], the mortality at 200 ppm in assay [1] and in assay [2] was 80 to 100% throughout.

These data come from patent US20170101392A1, “PROCESSES FOR THE PREPARATION OF PESTICIDAL COMPOUNDS” (Dow AgroSciences LLC, priority 2013, published 2017).
